Measured values from patent US20260098008A1, “COVALENT, CHEMOGENETIC ACTIVATORS FOR K2P POTASSIUM CHANNELS AND USES THEREOF” (THE REGENTS OF THE UNIVERSITY OF CALIFORNIA, priority 2022, published 2026).
Positions count from the first letter of the chain named.

Columns and labels:
Assay type in all cases: cell-based
[1] = target: T1, WT-WT tandem K2P2.1 (TREK-1) (Mus musculus, UniProt P97438); assay: Single channel recordings from HEK293 cells in cell attached mode; details: 20 μM; for Change of open probability (Po activator/Po control): cell-attached, -100 mV
T1 construct: expressed in transfected cells; host or cells: Xenopus laevis oocytes injected with mRNA
T1 sequence (P97438 1-411 isoform P97438-2) 1: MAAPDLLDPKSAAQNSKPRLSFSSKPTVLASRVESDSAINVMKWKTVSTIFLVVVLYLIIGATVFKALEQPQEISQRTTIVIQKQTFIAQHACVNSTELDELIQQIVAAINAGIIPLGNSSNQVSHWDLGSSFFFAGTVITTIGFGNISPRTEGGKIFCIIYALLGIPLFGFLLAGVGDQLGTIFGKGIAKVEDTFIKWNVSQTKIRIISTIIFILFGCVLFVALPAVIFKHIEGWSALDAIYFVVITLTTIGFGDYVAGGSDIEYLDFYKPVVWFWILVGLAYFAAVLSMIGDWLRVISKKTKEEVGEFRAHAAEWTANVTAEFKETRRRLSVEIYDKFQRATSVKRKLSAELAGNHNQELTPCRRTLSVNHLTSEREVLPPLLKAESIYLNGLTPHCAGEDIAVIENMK
T1 sequence (P97438 1-411 isoform P97438-2) 2: T1 sequence (P97438 1-411 isoform P97438-2) 1
From the text: (§1) Mouse K2P2.1 (TREK-1) (Genbank accession number: NP_034737.2), mouse K2P10.1 (TREK-2) (NM_001316665.1), mouse K2P4.1 (TRAAK) (NM_008431.3), human K2P4.1 (TRAAK) (NM_033310.2) and mouse K2P18.1(TRESK) (NM_207261.3) were used for this study. Point mutations were introduced by site-directed mutagenesis using custom primers and confirmed by sequencing before use. For studies using Xenopus oocytes, K2P channels were subcloned into a previously reported pGEMHE/pMO vector (46). For expression in HEK293 cells, mouse K2P2.1 (TREK-1) and mutants were expressed from a previously described pIRES2-EGFP vector in HEK293 cells (46,47). K2P2.1 (TREK-1) tandems were constructed by connecting the open reading frames for the individual subunits with a linker encoding the […] (SEQ ID NO: 19) sequence. Tandems used for HEK293 cells included an N-terminal HA tag ([…] (SEQ ID NO: 20)) on the first subunit.
(§2) Single-channel recordings of K2P2.1 (TREK-1) tandem mutants were recorded in cell-attached mode using HEK293 cells 48 h after transfection. Acquisition and analysis was preformed using pCLAMP9 and an Axopatch 200B amplifier. Pipettes were pulled using a laser-based micropipette puller (P-2000, Sutter Instruments). Electrode resistance after filling with pipette internal solution ranged from 6 to 10 MΩ. Pipette solution contained the following: 150 mM KCl, 3.6 mM CaCl2, 10 mM HEPES (pH 7.4 with KOH). The bath solution was identical to the pipette solution. Po was measured from 30-120 s recordings of K2P2.1 (TREK-1) activity holding at −100 mV. Channel conductance of K2P2.1 (TREK-1) tandems were measured from 30-60s recordings at either −100 mV or +50 mV holding potential. Recordings of CAT335 activated channels were obtained by bath applying 20 μM CAT335 for 2 min to the coverslip before transferring to the recording chamber. This was necessary as application of CAT335 via perfusion or through the pipette solution activated slowly (>5 min), making it difficult to measure Po from fully activated channels. BL-1249 was applied at 20 μM in the bath solution via perfusion at 3 mL min^−1 (2-4 min). Data were analyzed using Clampfit 11 and GraphPad Prism 9.

[2] = target: T2, CG*-CG* tandem K2P2.1 (TREK-1) (Mus musculus, UniProt P97438, S146C); assay: as above; details: 20 μM; for Change of open probability (Po activator/Po control): cell-attached, -100 mV
T2 construct: expressed in transfected cells; host or cells: Xenopus laevis oocytes injected with mRNA
T2 sequence (P97438 1-411 isoform P97438-2 S131C) 1: T1 sequence (P97438 1-411 isoform P97438-2) 1 with S131C
T2 sequence (P97438 1-411 isoform P97438-2 S131C) 2: T1 sequence (P97438 1-411 isoform P97438-2) 1 with S131C
From the text: as §1, §2

[3] = target: T3, CG*-WT tandem K2P2.1 (TREK-1) (Mus musculus, UniProt P97438, S146C); assay: as above; details: 20 μM; for Change of open probability (Po activator/Po control): cell-attached, -100 mV
T3 construct: expressed in transfected cells; host or cells: Xenopus laevis oocytes injected with mRNA
T3 sequence (P97438 1-411 isoform P97438-2 S131C): T1 sequence (P97438 1-411 isoform P97438-2) 1 with S131C
T3 sequence (P97438 1-411 isoform P97438-2): T1 sequence (P97438 1-411 isoform P97438-2) 1
From the text: as §1, §2

[4] = target: T4, TREK-1^CG* (K2P2.1 (TREK-1) S131C) (Mus musculus, UniProt P97438, S146C); assay: TEVC in Xenopus oocytes; details: for Reversibility of activation on washout: 20 μM, Xenopus oocytes
T4 construct: expressed in transfected cells; host or cells: Xenopus laevis oocytes injected with mRNA
T4 sequence (P97438 1-411 isoform P97438-2 S131C): T1 sequence (P97438 1-411 isoform P97438-2) 1 with S131C
From the text: as §1
(§3) Xenopus laevis oocytes were harvested according to UCSF IACUC Protocol AN129690 and digested using collagenase (Worthington Biochemical Corporation, #LS004183, 0.8-1.0 mg/mL) in Ca^21-free ND96 (96 mM NaCl, 2 mM KCl, 3.8 mM MgCl2, 5 mM HEPES pH 7.4) immediately post-harvest, as previously reported (31,33). Oocytes were maintained at 18° C. in ND96 (96 mM NaCl, 2 mM KCl, 1.8 mM CaCl2, 2 mM MgCl2, 5 mM HEPES pH 7.4) supplemented with antibiotics (100 units mL^−1 penicillin, 100 μg mL^−1 streptomycin, 50 μg mL^−1 gentimycin) and used for experiments within one week of harvest.
(§4) Defolliculated stage V-VI oocytes were microinjected with 0.5-36 ng mRNA and currents were recorded within 16-48 h hours of injection.
(§5) For recordings, oocytes were impaled with borosilicate recording microelectrodes (0.4-2.0 MΩ resistance) backfilled with 3 M KCl and were subjected to constant perfusion of ND96 at a rate of 3 ml min^−1. Recording solutions containing K2P activators were prepared immediately prior to use from DMSO stocks (20-100 mM), with final DMSO concentrations of 0.1%. Currents were evoked from a −80 mV holding potential followed by a 300 ms ramp from −150 mV to +50 mV. Data were recorded using a GeneClamp 500B amplifier (MDS Analytical Technologies) controlled by pCLAMP8 software (Molecular Devices), and digitized at 1 kHz using Digidata 1332 Å digitizer (MDS Analytical Technologies). For each recording, control solution (ND96) was perfused over a single oocyte until current was stable before switching to solutions containing the test compounds at various concentrations. Representative traces and dose response plots were generated in GraphPad Prism 9.

[5] = test system: K2P4.1 (TRAAK)^CG*; assay: TEVC in Xenopus oocytes; details: 20 μM
From the text: as §1, §3, §4, §5

Row | SMILES | Change of open probability (Po activator/Po control) [1] | Change of open probability (Po activator/Po control) [2] | Change of open probability (Po activator/Po control) [3] | Effect on single channel conductance ([1]; -100 mV and +50 mV) | Effect on single channel conductance ([2]; -100 mV and +50 mV) | Effect on single channel conductance ([3]; -100 mV and +50 mV) | Reversibility of activation on washout [4] | Reversibility of activation ([5]; Xenopus oocytes) | Fold-activation (I activator/I control) ([5]; after 2 min) | Fold-activation (I activator/I control) ([5]; longer application (6 min) to approach maximal activation) | Emax (IML335/Icontrol) ([4]; TEVC at 0 mV) | EC50 ([4]; TEVC at 0 mV, normalized to initial currents)
1 | c1ccc(-c2nn[nH]n2)c(Nc2cccc3c2CCCC3)c1 [BL-1249, reference compound] | large increases in Po | large increases in Po | large increases in Po | – | – | – | – | – | – | – | – | –
2 | O=C(NCc1ccc(Cl)cc1Cl)c1ccc(N2C(=O)C=CC2=O)cc1 [CAT335] | no impact on open probability | 7.8 | 6.3 | minimal to no effect on single channel conductance | minimal to no effect on single channel conductance | minimal to no effect on single channel conductance | irreversible | irreversibly activated | 4.2±0.6 fold | 11±1 fold | – | –
3 | CS(=O)(=O)Nc1ccc(C(=O)NCc2ccc(Cl)cc2Cl)cc1 [ML335, reference compound] | – | – | – | – | – | – | immediate reversal | – | 1.9±0.1 fold | – | 9.6±0.8 fold activation | 18 ± 4 µM
